Reference: ChEMBL document CHEMBL3044965, “Design, synthesis, and antimalarial evaluation of thiazole-derived amino acids” (Med Chem Res, 2008)
pIC50: −log10 of the molar value. Calls of active or inactive are those of the source. The calls are words filed in the database; no cut-off is given here.

What was measured:
[1] = test system: Plasmodium falciparum; test: Antiplasmodial activity against chloroquine-resistant Plasmodium falciparum assessed as inhibition of [3H]hypoxanthine incorporation incubated for 20 to 24 hr prior to [3H]hypoxanthine addition measured after 24 grs by microbeta scintillation counting; assay type: functional, organism-based
[2] = test system: Plasmodium falciparum; test: Antiplasmodial activity against chloroquine-sensitive Plasmodium falciparum assessed as inhibition of [3H]hypoxanthine incorporation incubated for 20 to 24 hr prior to [3H]hypoxanthine addition measured after 24 grs by microbeta scintillation counting; assay type: functional, organism-based
[3] = Cytotoxicity against Homo sapiens (human) RBC assessed as cell lysis; assay type: cell-based; conditions: erythrocyte
[4] = test system: Plasmodium falciparum; test: Antiplasmodial activity against chloroquine-sensitive Plasmodium falciparum by schizont maturation assay; assay type: functional, organism-based
[5] = test system: Plasmodium falciparum; test: Antiplasmodial activity against chloroquine-resistant Plasmodium falciparum by schizont maturation assay; assay type: functional, organism-based

Row | SMILES | pIC50 [1] | IC90 [1] [µM] | pIC50 [2] | IC90 [2] [µM] | IC99 [2] [µM] | Activity [3] | Activity [4] | Activity [5]
1 | CC(C)(C)OC(=O)NCC(=O)Nc1nccs1 | 4.76 | 22.4 | 4.84 | 21.3 |  |  |  | 
2 | CC(C)[C@H](NC(=O)OC(C)(C)C)C(=O)Nc1nccs1 | 4.96 | 18.6 | 5.03 | 12.5 |  |  |  | 
3 | CC(C)(C)OC(=O)N[C@@H](CSCc1ccccc1)C(=O)Nc1nccs1 | 4.97 | 15.5 | 5.04 | 12.6 |  |  |  | 
4 | N[C@H](Cc1c[nH]c2ccccc12)C(=O)Nc1nccs1 | 4.71 | 17.1 | 4.95 | 16.1 |  |  |  | 
5 | CC1CCCN1[C@H](NC(=O)OC(C)(C)C)C(=O)Nc1nccs1 (stereo partly drawn) | 5.21 | 12.7 | 5.31 | 11.1 | 14.9 | Non-toxic | Active | Active
6 | CC(C)(C)OC(=O)N[C@@H](Cc1c[nH]c2ccccc12)C(=O)Nc1nccs1 | 5.31 | 9.12 | 5.46 | 7.89 | 18.1 | Non-toxic | Active | Active
7 | CC(C)(C)OC(=O)N[C@@H](Cc1ccccc1)C(=O)Nc1nccs1 | 5.13 | 18.6 | 5.25 | 16.3 |  |  |  | 
8 | C[C@H](NC(=O)OC(C)(C)C)C(=O)Nc1nccs1 | 4.73 | 27.2 | 4.92 | 24.5 |  |  |  | 
9 | CSCC[C@H](NC(=O)OC(C)(C)C)C(=O)Nc1nccs1 | 4.74 | 31.4 | 4.99 | 29.1 |  |  |  | 
10 | CCN(CC)CCCC(C)Nc1ccnc2cc(Cl)ccc12 (stereo not drawn) [CHLOROQUINE] |  | 0.25 |  | 0.05 |  |  |  | 
11 | N[C@H](Cc1ccccc1)C(=O)Nc1nccs1 | 4.76 | 45.7 | 4.79 | 33.5 |  |  |  | 
12 | CC(C)C[C@H](NC(=O)OC(C)(C)C)C(=O)Nc1nccs1 | 5.05 | 18.3 | 5.20 | 14.5 |  |  |  | 
13 | CC[C@H](C)[C@H](NC(=O)OC(C)(C)C)C(=O)Nc1nccs1 | 5.11 | 11.1 | 5.20 | 9.74 |  |  |  | 
